For five compounds, Ki and melting point results are on record in US20080188478A1, “Compounds Useful In Therapy” (Pfizer Inc., priority 2005, published 2008).

The target of one data set is human V1A receptor (Homo sapiens, UniProt P37288). Put plainly: V1A filter binding assay ([3H]-AVP binding to CHO-hV1A membranes). The note with it: screen 1.0, Ki by Cheng-Prusoff equation. The method, then:
1.0 V1A Filter Binding Assay
Receptor binding assays were performed on cellular membranes prepared from CHO cells stably expressing the human V1A receptor, (CHO-hV1A). The CHO-hV1A cell line was kindly provided under a licensing agreement by Marc Thibonnier, Dept. of Medicine, Case Western Reserve University School of Medicine, Cleveland, Ohio. CHO-hV1A cells were routinely maintained at 37° C. in humidified atmosphere with 5% CO2 in DMEM/Hams F12 nutrient mix supplemented with 10% fetal bovine serum, 2 mM L-glutamine, 15 mM HEPES and 400 μg/ml G418. For bulk production of cell pellets, adherent CHO-hV1A cells were grown to confluency of 90-100% in 850 cm^2 roller bottles containing a medium of DMEM/Hams F12 Nutrient Mix supplemented with 10% fetal bovine serum, 2 mM L-glutamine and 15 mM HEPES. Confluent CHO-hV1A cells were washed with phosphate-buffered saline (PBS), harvested into ice cold PBS and centrifuged at 1,000 rpm. Cell pellets were stored at −80° C. until use. When required, the cell pellets were thawed on ice and homogenised in membrane preparation buffer consisting of 50 mM Tris-HCl, pH 7.4, 5 mM MgCl2 and supplemented with a protease inhibitor cocktail, (Roche). The cell homogenate was centrifuged at 1000 rpm, 10 min, 4° C. and the supernatant was removed and stored on ice. The remaining pellet was homogenised and centrifuged as before. The supernatants were pooled and centrifuged at 25,000×g for 30 min at 4° C. The pellet was resuspended in freezing buffer consisting of 50 mM Tris-HCl, pH 7.4, 5 mM MgCl2 and 20% glycerol and stored in small aliquots at −80° C. until use. Protein concentration was determined using Bradford reagent and BSA as a standard.
Protein linearity, followed by saturation binding studies were performed on each new batch of membrane. A membrane concentration was chosen that gave specific binding on the linear portion of the curve. Saturation binding studies were then performed using various concentrations of [^3H]-arginine vasopressin, [^3H]-AVP (0.05 nM-100 nM) and the Kd and Bmax were determined. […] The plates were sealed and counted on a TopCount Microplate Scintillation Counter (Packard Instruments). Non-specific binding (NSB) was determined using 1 μM unlabelled d(CH2)5Tyr(Me)AVP ([β-mercapto-β,β-cyclopentamethylenepropionyl, 0-Me-Tyr^2, Arg^8]-vasopressin) (βMCPVP), (Sigma). The radioligand binding data was analysed using a four parameter logistic equation with the min forced to 0%. […] Specific binding was calculated by subtracting the mean NSB cpm from the mean Total cpm. For test compounds the amount of ligand bound to the receptor was expressed as % bound=(sample cpm−mean NSB cpm)/specific binding cpm×100. […]

human V1A receptor, sequence (P37288 whole entry): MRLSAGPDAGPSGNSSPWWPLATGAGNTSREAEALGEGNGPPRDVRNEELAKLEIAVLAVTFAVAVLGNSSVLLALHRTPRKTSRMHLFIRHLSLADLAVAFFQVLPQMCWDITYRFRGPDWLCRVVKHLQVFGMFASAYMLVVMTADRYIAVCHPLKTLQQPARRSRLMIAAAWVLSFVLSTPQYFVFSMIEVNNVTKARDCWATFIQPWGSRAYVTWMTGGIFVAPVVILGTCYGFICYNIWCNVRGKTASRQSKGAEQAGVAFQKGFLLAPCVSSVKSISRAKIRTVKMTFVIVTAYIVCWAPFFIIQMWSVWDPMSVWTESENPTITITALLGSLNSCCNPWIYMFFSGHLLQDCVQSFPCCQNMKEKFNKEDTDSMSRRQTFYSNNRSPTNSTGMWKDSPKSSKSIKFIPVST

What is called Ki is the equilibrium dissociation constant of an inhibitor or competing ligand from its target. Higher therefore signals a looser hold on the target. Compound `Cc1nnc(N2CCN(c3nsc4ccccc34)CC2)n1-c1ccc(Cl)cc1` [Example 20, 3-{4-[4-(4-Chlorophenyl)-5-methyl-4H-1,2,4-triazol-3-yl]piperazin-1-yl}-1,2-benzisothiazole] came in with a Ki on human V1A receptor of 0.49 nM. With `O=c1oc2cccnc2n1C1CCN(c2nnc(Cn3nccn3)n2-c2ccc(Cl)cc2)CC1` [Example 7, 3-{1-[4-(4-chlorophenyl)-5-(2H-1,2,3-triazol-2-ylmethyl)-4H-1,2,4-triazol-3-yl]piperidin-4-yl}[1,3]oxazolo[4,5-b]pyridin-2(3H)-one], the Ki at human V1A receptor came out at 1.1 nM.

Consider `Cc1nnc(C2CCN(c3noc4cccnc34)CC2)n1-c1ccc(Cl)cc1` [Example 29, 3-{4-[4-(4-Chlorophenyl)-5-methyl-4H-1,2,4-triazol-3-yl]piperidin-1-yl}isoxazolo[4,5-b]pyridine], for which, at human V1A receptor, affinity was put at a Ki of 1.04 nM. Broadly, the melting point is the temperature, or range, at which the solid turns liquid. Compound `Cc1nnc(N2CCC(N3c4ccccc4N(C)S3(=O)=O)CC2)n1-c1ccc(Cl)cc1` [Example 18, 1-{1-[4-(4-Chlorophenyl)-5-methyl-4H-1,2,4-triazol-3-yl]piperidin-4-yl}-3-methyl-1,3-dihydro-2,1,3-benzothiadiazole 2,2-dioxide] had a melting point of 210 to 212 °C. On to `FC(F)(F)c1nnc(N2CCN(c3nsc4ccccc34)CC2)n1-c1ccc(Cl)cc1` [Example 22, 3-{4-[4-(4-Chlorophenyl)-5-(trifluoromethyl)-4H-1,2,4-triazol-3-yl]piperazin-1-yl}-1,2-benzisothiazole], for which the affinity on human V1A receptor, expressed as Ki, was 0.79 nM.
